Values of other authors as cited in paper PMC8035703, “Effect of Synchronous Versus Sequential Regimens on the Pharmacokinetics and Biodistribution of Regorafenib with Irradiation” (Pharmaceutics, 2021).

Design: method as in PMID 26867886, PMID 28202227, PMID 24971021
Settings: HCC patients who received RT concurrently or sequentially with sorafenib; cited from earlier work

Question: With `CNC(=O)c1cc(Oc2ccc(NC(=O)Nc3ccc(Cl)c(C(F)(F)F)c3)cc2)ccn1` [sorafenib] as the compound, how does the “Incidence of adverse effects” value read?
Answer: > 30%
